Read-outs that look alike come from different tables or passages of the source.
Key:
EMT-6 tumors [1] = assay: Enhancement of the effect of anti-tumor agents on EMT-6 tumor in mouse; format: in vivo, BALB/c-strain mice; settings: for Mean tumor diameter 7 days after commencement of treatment: control 7.38; for Mean tumor diameter 14 days after commencement of treatment: control 9.20; for Mean tumor diameter ratio 7 days after commencement of treatment: control 1.27; for Mean tumor diameter ratio 14 days after commencement of treatment: control 1.57
Experimental: (1) EMT-6 tumor cells (1×10^6) were inoculated intradermally into the right thighs of BALB/c-strain mice (7 weeks old). On the 10th day after inoculation of the tumor cells and thereafter, various enhancer chemicals in physiological saline solutions were administered intrapenitoneally to the mouse every other day in the indicated doses for respective agents. The pharmaceutical agents of the present invention were administered 30 minutes after administration of the anti-tumor agents. After commencement of the treatment with pharmaceutical agents, the tumor sizes were measured every other day and compared with the control group.

EMT-6 tumors [2] = assay: Radiosensitizing effect on EMT-6 tumor in mouse, 1500 rad, tumor size and cure; format: in vivo, BALB/c-strain female mice
[3] = tested on: potentially lethal damage repair; assay: PLDR-inhibiting / radiosensitizing activity (general statements)
[4] = tested on: Chinese hamster-HA-1 cells; assay: Plating efficiency of stationary-phase HA-1 cells given enhancer immediately after 1,000 R X-ray (inhibition of PLDR); format: cell-based; settings: for Plating efficiency after 3 hours: control 1.8; for Plating efficiency after 6 hours: control 2.4; for Plating efficiency after 9 hours: control 3.8
Experimental: (§2) (1) Cells under stationary phase, prepared by planting 2×10^5 cells/well of Chinese hamster-HA-1 cells in a multiwell dish and exchanging cultural medium every day starting on the third day and thereafter were irradiated with 1,000 R of X-rays. Immediately after radiation, 3'-dUrd, and 3'-dGuo in HANKs' balanced salt solution were administered. Then, after elapse of various times, the cells were taken off with trypsin, and a suitable number of cells were transferred into petri dishes for testing colony forming ability and plating efficiencies. The percentages of survival were calculated with corrections by the plating efficiencies with the pharmaceutical agents alone.

[5] = as above; format: cell-based, Chinese hamster; settings: chinese hamster, ha-1 cells, no irradiation, control 66, read-out: Plating efficiency, treated only with enhancer (after 9 hours)
Experimental: as §2

[6] = Survival percent of stationary-phase HA-1 cells treated with enhancer 30 minutes before X-ray irradiation; format: cell-based, Chinese hamster; settings: ha-1 cells, no irradiation, control 90, read-out: Plating efficiency of the group not irradiated with X-Rays
Experimental: (§1) (2) HA-1 cells under stationary phase prepared similarly as in (1), were irradiated with various doses (200 to 800 R) of X-rays for examination of effects of the enhancer on plating efficiencies of the cells. The treatment with the enhancer was conducted 30 minutes before irradiation. Measurement of plating efficiencies was carried out for the cells immediately after irradiation with X-rays.

HA-1 cells = assay: as above; format: cell-based, Chinese hamster
Experimental: as §1

adenosinedeaminase = settings: cited from earlier work
[7] = ACNU alone 25 mg/kg × 5, n = 7, before treatment 6.23 ± 0.76
[8] = 3'-dUrd 0.8 mg/mouse + irradiation 1500 rad, irradiation alone 0%
[9] = 3'-dUrd 0.8 mg/mouse + irradiation 1500 rad, irradiation alone 0/10
[10] = 3'-dUrd 150 μg/ml after 1,000 R
[11] = 3'-dUrd 300 μg/ml after 1,000 R
[12] = 3'-dUrd 600 μg/ml after 1,000 R
[13] = ADM alone 2 mg/kg × 8, n = 10, before treatment 6.72 ± 1.00
[14] = araC alone 50 mg/kg × 8, n = 7, before treatment 6.11 ± 0.78

## Cc1ncc(CNC(=O)N(CCCl)N=O)c(N)n1 [ACNU, reference compound]
EMT-6 tumors [1]; [7]
  Mean tumor diameter 7 days after commencement of treatment: 5.51 ± 1.91 mm
  Mean tumor diameter 14 days after commencement of treatment: 6.54 ± 1.82 mm
EMT-6 tumors [1]; ACNU alone 25 mg/kg × 5, n = 7
  Mean tumor diameter ratio 7 days after commencement of treatment: 0.87 ± 0.21
  Mean tumor diameter ratio 14 days after commencement of treatment: 1.06 ± 0.29

## O=c1[nH]c(=O)n(C2CCCO2)cc1F (stereo not drawn) [FT-207, 1-(2-tetrahydrofuryl)-5-fluorouracil, reference compound]
EMT-6 tumors [1]; FT-207 alone 100 mg/kg × 6, n = 9, before treatment 6.96 ± 1.43, control 11.43
  Mean tumor diameter 18 days after commencement of treatment: 8.37 ± 2.12 mm
EMT-6 tumors [1]; FT-207 alone 100 mg/kg × 6, n = 9, control 1.97
  Mean tumor diameter ratio 18 days after commencement of treatment: 1.20 ± 0.31

## O=c1ccn([C@@H]2O[C@H](CO)C[C@H]2O)c(=O)[nH]1 [3'-dUrd, 3'-deoxyuridine]
EMT-6 tumors [2]; 3'-dUrd 0.8 mg/mouse + irradiation 1500 rad, 28 days, irradiation alone 1/10
  Cure (number of mice): 3/7
EMT-6 tumors [2]; 3'-dUrd 0.8 mg/mouse + irradiation 1500 rad, 28 days, irradiation alone 10%
  Cure (percent): 43%
EMT-6 tumors [2]; [8]
  0.5 to less than 1 of volume ratio excluding cure; Tumor regression rate: slow (percent): 0%
  Less than 0.5 of volume ratio excluding cure; Tumor regression rate: rapid (percent): 14%
EMT-6 tumors [2]; [9]
  0.5 to less than 1 of volume ratio excluding cure; Tumor regression rate: slow (number): 0/7
  Less than 0.5 of volume ratio excluding cure; Tumor regression rate: rapid (number): 1/7
EMT-6 tumors [2]; 3'-dUrd 0.8 mg/mouse + irradiation 1500 rad, irradiation alone 3/10
  1.0 to less than 2.0 of volume ratio excluding cure; regrowth: slow (number): 2/7
EMT-6 tumors [2]; 3'-dUrd 0.8 mg/mouse + irradiation 1500 rad, irradiation alone 6/10
  2.0 or more of volume ratio excluding cure; regrowth: rapid (number): 1/7
EMT-6 tumors [2]; 3'-dUrd 0.8 mg/mouse + irradiation 1500 rad, irradiation alone 30%
  1.0 to less than 2.0 of volume ratio excluding cure; regrowth: slow (percent): 29%
EMT-6 tumors [2]; 3'-dUrd 0.8 mg/mouse + irradiation 1500 rad, irradiation alone 60%
  2.0 or more of volume ratio excluding cure; regrowth: rapid (percent): 14%
EMT-6 tumors [2]; 3'-dUrd 40 mg/kg i.p. 30 min before 1500 rad, n = 7, baseline 6.00 ± 0.41 mm, irradiation alone 7.41
  Mean tumor diameter 2 weeks after treatment: 6.31 ± 0.97 mm
EMT-6 tumors [2]; 3'-dUrd 40 mg/kg i.p. 30 min before 1500 rad, n = 7, baseline 6.00 ± 0.41 mm, irradiation alone 8.29
  Mean tumor diameter 3 weeks after treatment: 4.29 ± 1.73 mm
EMT-6 tumors [2]; 3'-dUrd 40 mg/kg i.p. 30 min before 1500 rad, n = 7, irradiation alone 1.09
  Diameter ratio 2 weeks after treatment: 1.06 ± 0.15
EMT-6 tumors [2]; 3'-dUrd 40 mg/kg i.p. 30 min before 1500 rad, n = 7, irradiation alone 1.17
  Diameter ratio 3 weeks after treatment: 0.66 ± 0.25
EMT-6 tumors [2]; 3'-dUrd 40 mg/kg i.p. 30 min before 1500 rad, n = 7, irradiation alone 1.44
  Volume ratio 2 weeks after treatment: 1.63 ± 0.44
EMT-6 tumors [2]; 3'-dUrd 40 mg/kg i.p. 30 min before 1500 rad, n = 7, irradiation alone 2.06
  Volume ratio 3 weeks after treatment: 1.21 ± 0.60
[3]
  Radiosensitizing activity: excellent radiosensitizing activities
[4]; [10]
  Plating efficiency after 3 hours: 1.6%
  Plating efficiency after 6 hours: 2.2%
  Plating efficiency after 9 hours: 3.5%
[4]; [11]
  Plating efficiency after 3 hours: 1.2%
  Plating efficiency after 6 hours: 1.9%
  Plating efficiency after 9 hours: 3.1%
[4]; [12]
  Plating efficiency after 3 hours: 0.9%
  Plating efficiency after 6 hours: 1.6%
  Plating efficiency after 9 hours: 2.6%
[4]; HA-1 cells, Table 1
  Inhibition of repair (PLDR) after irradiation with X-rays: found to inhibit repair (PLDR) after irradiation with X-rays
  Toxicity as examined by plating efficiencies: Substantially no toxicity was observed
[5]; 3'-dUrd 150 μg/ml
  viability at 9 h: 65%
[5]; 3'-dUrd 300 μg/ml
  viability at 9 h: 60%
[5]; 3'-dUrd 600 μg/ml
  viability at 9 h: 58%
[6]; 100 μg/ml
  viability: 85%
[6]; 200 μg/ml
  viability: 87%
[6]; 400 μg/ml
  viability: 85%
[6]; 800 μg/ml
  viability: 80%
HA-1 cells; 100 μg/ml, 200R, control 88
  Survival percent of the group irradiated with X-Rays: 45%
HA-1 cells; 100 μg/ml, 400R, control 27
  Survival percent of the group irradiated with X-Rays: 19%
HA-1 cells; 100 μg/ml, 600R, control 5.9
  Survival percent of the group irradiated with X-Rays: 5.2%
HA-1 cells; 100 μg/ml, 800R, control 1.9
  Survival percent of the group irradiated with X-Rays: 1.8%
HA-1 cells; 200 μg/ml, 200R, control 88
  Survival percent of the group irradiated with X-Rays: 39%
HA-1 cells; 200 μg/ml, 400R, control 27
  Survival percent of the group irradiated with X-Rays: 15%
HA-1 cells; 200 μg/ml, 600R, control 5.9
  Survival percent of the group irradiated with X-Rays: 4.9%
HA-1 cells; 200 μg/ml, 800R, control 1.9
  Survival percent of the group irradiated with X-Rays: 1.8%
HA-1 cells; 400 μg/ml, 200R, control 88
  Survival percent of the group irradiated with X-Rays: 30%
HA-1 cells; 400 μg/ml, 400R, control 27
  Survival percent of the group irradiated with X-Rays: 13%
HA-1 cells; 400 μg/ml, 600R, control 5.9
  Survival percent of the group irradiated with X-Rays: 3.8%
HA-1 cells; 400 μg/ml, 800R, control 1.9
  Survival percent of the group irradiated with X-Rays: 1.2%
HA-1 cells; 800 μg/ml, 200R, control 88
  Survival percent of the group irradiated with X-Rays: 29%
HA-1 cells; 800 μg/ml, 400R, control 27
  Survival percent of the group irradiated with X-Rays: 13%
HA-1 cells; 800 μg/ml, 600R, control 5.9
  Survival percent of the group irradiated with X-Rays: 3.8%
HA-1 cells; 800 μg/ml, 800R, control 1.9
  Survival percent of the group irradiated with X-Rays: 1.0%
HA-1 cells; HA-1 cells, Table 2
  Sensitizing effect under X-ray irradiation: found to exhibit sensitizing effect especially with low dosage of irradiation with X-rays

## COc1cccc2c1C(=O)c1c(O)c3c(c(O)c1C2=O)C[C@@](O)(C(=O)CO)C[C@@H]3O[C@H]1C[C@H](N)[C@H](O)[C@H](C)O1 [ADM, Adriamycin, reference compound]
EMT-6 tumors [1]; [13]
  Mean tumor diameter 7 days after commencement of treatment: 7.67 ± 1.30 mm
  Mean tumor diameter 14 days after commencement of treatment: 9.04 ± 1.77 mm
EMT-6 tumors [1]; ADM alone 2 mg/kg × 8, n = 10
  Mean tumor diameter ratio 7 days after commencement of treatment: 1.17 ± 0.29
  Mean tumor diameter ratio 14 days after commencement of treatment: 1.38 ± 0.36

## Nc1ccn([C@@H]2O[C@H](CO)[C@@H](O)[C@@H]2O)c(=O)n1 [araC, 1-β-D-arabinofuranosylcytosine, reference compound]
EMT-6 tumors [1]; [14]
  Mean tumor diameter 7 days after commencement of treatment: 7.11 ± 1.48 mm
  Mean tumor diameter 14 days after commencement of treatment: 8.07 ± 2.62 mm
EMT-6 tumors [1]; araC alone 50 mg/kg × 8, n = 7
  Mean tumor diameter ratio 7 days after commencement of treatment: 1.16 ± 0.18
  Mean tumor diameter ratio 14 days after commencement of treatment: 1.38 ± 0.46

## Bleomycin [BLM, reference compound]
EMT-6 tumors [1]; BLM alone 25 mg/kg × 4, n = 10, before treatment 6.12 ± 1.17, control 11.43 ± 2.30
  Mean tumor diameter 18 days after commencement of treatment: 9.77 ± 2.50 mm
EMT-6 tumors [1]; BLM alone 25 mg/kg × 4, n = 10, control 1.97 ± 0.40
  Mean tumor diameter ratio 18 days after commencement of treatment: 1.60 ± 0.41

## OC[C@H]1O[C@@H](n2cnc3c2N=CNC[C@H]3O)C[C@@H]1O [2'-deoxycoformycin]
adenosinedeaminase
  Inhibition of adenosinedeaminase: inhibitor against adenosinedeaminase

— US4434788A, “Enhancer of anti-tumor effect” (Yamasa Shoyu Kabushiki Kaisha, priority 1980, dated 1984)
